Experimental data from patent US6403647B1, “Pulsed administration of compositions for the treatment of blood disorders” (priority 1996, dated 2002).
Read-outs that look alike come from different tables or passages of the source.

Assays:
[1] = system: system A transport of amino acids; assay: Uptake of 3H-methyl-aminoisobutyric acid (MeAIB) into erythroblasts; assay type: cell-based; conditions: for amino acid (MeAIB) uptake / transport: 2.0 mM, relative to untreated fetal liver erythroid cells
Protocol: Erythroblasts were tested for alterations in uptake of radio-labelled amino acid (^3H-methyl-aminoisobutyric acid; MeAIB) in the presence of AB (arginine butyrate), AMHCA (α-methylhydrocinnamic acid), PAA (phenoxyacetic acid), and IBT (isobutyramide), each at 2.0 mM.

Bfu-e = assay: Erythroid colony (Bfu-e) proliferation with maximal growth factors, normal subject; assay type: cell-based, human; conditions: 0.2-0.5 mM where given
Source text: Erythroid cells were obtained, as described in Example 1, from a normal subject and cultured on semi-solid medium in the presence of a maximal amount of erythroid growth factors including IL-6, GM-CSF, SCF and EPO. Erythroid proliferation in the presence of these factors is expected to be maximal and, therefore, any increases observed would be significant.

human fetal liver cells = assay: Erythroid progenitor colony proliferation, fetal liver cells; assay type: cell-based; conditions: 0.2 mM, maximal growth factors, p<0.025
Protocol: In a third experiment, human fetal liver cells were also tested. As fetal cells are known not to respond to the presence of the growth factors, any increases observed are highly significant. Erythroid progenitor cultures were established from fetal liver and plated with maximal amounts of growth factors. To these plates were added; lane 1, 2-(4′-methoxyphenoxy) propionic acid; lane 2, phenoxyacetic acid; and lane 3, α-methylhydrocinnamic acid; all at a concentration of 0.2 mM.

fetal globin [2] = assay: Proportion of fetal globin-expressing cells in culture, fluorescent antibodies, sickle cell patient; assay type: cell-based, human; conditions: 14 days, controls 40.7%
Protocol: In a fourth experiment, erythroid cells were obtained from a sickle cell patient. These cells were established in culture both with and without test a variety of test compounds. Cultures were incubated for 14 days in methylcellulose media with maximal concentrations of all hematopoietic growth factors (GM-CSF, SCF, EPO). Colonies were analyzed using fluorescent monoclonal antibodies against fetal globin to determine the proportion of erythroid cells that expressed fetal globin.

γ globin mRNA = conditions: continuous intravenous administration; cited from earlier work
Friend leukemia cells = conditions: cultured Friend leukemia cells; cited from earlier work
[3] = Apoptosis (fragmented DNA stain) of circulating erythroblasts, Hb-E beta thalassemia patient; assay type: in vivo, human
Source text: Peripheral blood from a patient with Hb-E beta thalassemia has 1200 NRBCs per 100 white blood cells which allows for rapid monitoring for apoptosis. […] A plateau or even a decline in hematologic response has been observed when butyrate therapy is given continuously.

[4] = Weekly then pulse butyrate in a patient with β° thalassemia; assay type: in vivo, human
Protocol: A plateau or even a decline in hematologic response has been commonly observed when butyrate therapy is given continuously. This is illustrated in a patient with β° thalassemia, who responded to weekly butyrate treatment with an increase in fetal globin synthesis and improved globin chain balance from 0.5 to 0.85 non-α to α-globin chain ratios (FIG. 8). A 3-fold increase in γ globin mRNA was detected 24-36 hours after therapy. A 1-1.5 gram/dl rise in total hemoglobin followed the increase in […] synthesis and mRNA, but total Hgb then plateaued and even declined slightly (solid line). A decline in ferritin is also frequently observed (lower panel), even though the patient received single daily supplements.
When therapy was decreased to shorter pulses for 2-3 days on alternate weeks, total hemoglobin rose another 2 grams/dl. Increased iron supplements were required to support the active erythropoiesis, despite the presence of iron overload.
The therapeutic rise in total hemoglobin plateaued or declined on weekly therapy. With a change to pulse therapy, shown by the curved arrow, there was a further rise in total Hgb to 9.6 gm/dl, a level that no longer requires transfusions.
A three fold increase in γ globin mRNA was detected 24 to 36 hours after therapy.
A 1.0 to 1.5 gram per deciliter rise in total hemoglobin followed the increase in γ globin mRNA synthesis for 30 to 50 days, but total Hgb plateaued and even declined slightly (FIG. 8). A decline in ferritin was also frequently observed (FIG. 10) even though the patient received single daily supplements.
Increased iron supplements were required to support active erythropoiesis, despite the iron overload (FIG. 10).

[5] = Globin chain synthesis at varied butyrate infusion rates in patients; assay type: in vivo, human; conditions: infusion at 150 mg per kg per hour; baseline 0.6
Protocol: Infusion rates were varied between 20 to 150 mg per kg per hour in several patients who have large proportions of circulating nucleated erythroblasts. Globin chain synthesis was assayed at different time points before and following drug infusions.

[6] = Continuous butyrate therapy in a child with beta thalassemia; assay type: in vivo, human
Source text: Treatment period, the ten month duration of butyrate therapy, is shown between the vertical lines.

[7] = DNA fragmentation assays (cell viability); assay type: cell-based
Source text: Normal cell viability, the viability of an untransformed or uninfected cell, can be determined from analyzing the effects of the composition on one or more biological processes of the cell. Detrimental interference with one or more of these cellular processes becomes significant when the process becomes abnormal. Examples of quantitatable and qualifiable biological processes include the processes of cell division, protein synthesis, nucleic acid (DNA or RNA) synthesis, nucleic acid (principally DNA) fragmentation and apoptosis. Others processes include specific enzyme activities, the activities of the cellular transportation systems such as the transportation of amino acids by system A (neutral), system B (acidic) or system C (basic), and the expression of a cell surface protein. […] Abnormal cell division, for example, can be mitosis which occurs too rapidly, as in a malignancy, or unstably, resulting in programmed cell death or apoptosis, detected by increased DNA degradation. The determination of abnormal cell viability can be made on comparison with untreated control cells. Compositions preferably increase normal cell viability. Increased cell viability can be determined by those of ordinary skill in the art using, for example, DNA fragmentation analysis. […] Determinations of increased or decreased viability can also be concluded from an analysis of the results of multiple different assays. Where multiple tests provide conflicting results, accurate conclusions can still be drawn by those of ordinary skill based upon the cell type, the correctness or correlation of the tests with actual conditions and the type of composition.
Patients with blood disorders are typically quite infirm with, for example, iron damaged organs and systems. Most treatments further tax the patient's already frail health in an effort to combat the disorder.

[8] = system: K562 human erythroleukemia cells; conditions: cited from earlier work
[9] = Platelet counts in baboon with pulse administration; assay type: in vivo; conditions: increased from 240,000
[10] = Total hemoglobin in phlebotomized anemic baboons, continuous versus pulse therapy; assay type: in vivo, baboon
Protocol: Therapy was administered to anemic baboons who were being phlebotomized 5-10 ml/kg of blood per day on a continuous basis. EPO was administered daily at 300 U/kg/dose. Arginine butyrate was administered daily at 700 mg/kg/day for 5 days and phenoxyacetic acid at 500 mg/kg/day daily over 8 hours and at 1000 mg/kg/day for 24 hours/day daily for five days each. […] With continuous arginine butyrate treatment, hemoglobin remained essentially stable at 6.7 to 6.9 gram/dl. With continuous treatment with phenoxyacetic acid, hemoglobin levels remained stable at 7.0 gram/dl to 6.9 gram/dl during 8 hour therapy and declined from 6.8 to 4.5 when the drug was given for 24 hours per day for 5 days.

fetal globin [11] = assay: Fetal globin production in erythroid progenitor colonies (Bfu-e), sickle cell anemia patient; assay type: cell-based, human; conditions: controls 48% of non-α globin

SMILES: COc1ccc(OC(C)C(=O)O)cc1 (stereo not drawn) [2-(4′-methoxyphenoxy) propionic acid]
- amino acid (MeAIB) uptake / transport [1]: moderate inhibition of transport
- inhibition of MeAIB uptake ([1]; after 60 and 120 minutes): somewhat less so
- Bfu-e growth (Bfu-e): further increase Bfu-e growth
- proliferation of colonies (human fetal liver cells): increased proliferation of colonies

SMILES: CC(Oc1ccc(Cl)cc1)C(=O)O (stereo not drawn) [4-chlorophenoxy-2-propionic acid]
- Increase in γ-Globin Expressing Cells (fetal globin [2]; 0.5 mM): 59.7%
- Bfu-e growth (Bfu-e): further increase Bfu-e growth

SMILES: Nc1ncn([C@@H]2O[C@H](CO)[C@@H](O)[C@H]2O)c(=O)n1 [AZA, 5-azacytidine]
- increase in γ globin mRNA of bone marrow cells (γ globin mRNA): five- to seven-fold

SMILES: CC(=O)O [acetate]
- hemoglobin synthesis (Friend leukemia cells): induced hemoglobin synthesis

SMILES: CCCC(=O)O [butyrate]
- apoptosis, red stain of fragmented DNA ([3]; after high-dose): red staining of most cells
- apoptosis, red stain of fragmented DNA ([3]; after low-dose pulse therapy): no red-staining erythroblasts are observed
- total Hgb reached ([4]; after change to pulse therapy): 9.6 gm/dl
- non-α to α-globin chain ratios ([4]; weekly butyrate, improved from 0.5): 0.85
- rise in total hemoglobin ([4]; weekly butyrate, then plateaued): 1-1.5 gram/dl
- non-α globin to α globin ratio [5]: 0.77
- total hemoglobin ([6]; after 4 months of continuous weekly treatment): 7.5-8.4 gm/dl
- total hemoglobin, peak ([6]; continuous therapy, baseline 5.6 grams/dl): 9.9 gm/dl
- total hemoglobin, plateau ([6]; continuous therapy, for 2 months after peak): 8.0-8.8 gm/dl

SMILES: CCCC(=O)OCC [butyric acid ethyl ester]
- DNA fragmentation in fragmentation assays [7]: reduce DNA fragmentation

SMILES: CCCCCCCCCC(=O)O [caprate]
- ability to increase fetal globin expression [8]: much less of an effect

SMILES: CCCCCC(=O)[O-].CCCCCC(=O)[O-].[Ca+2] [caproate]
- ability to increase fetal globin expression [8]: much less of an effect

SMILES: CCCCCCCC(=O)O [caprylate]
- ability to increase fetal globin expression [8]: much less of an effect

SMILES: O=C(O)CCc1ccccc1 [dihydrocinnamic acid]
- platelet counts after treatment [9]: 767,000

SMILES: CC(C)C(N)=O [isobutyramide]
- cell viability in DNA fragmentation assays [7]: decrease cell viability

SMILES: CC(C)C(=O)O [isobutyrate]
- hemoglobin synthesis (Friend leukemia cells): induced hemoglobin synthesis

SMILES: O=C(O)COc1ccccc1 [phenoxyacetic acid]
- system A transport of amino acids [1]: do not significantly alter system A transport of amino acids
- amino acid (MeAIB) uptake / transport [1]: did not inhibit amino acid transport
- total hemoglobin after treatment ([10]; continuous, 500 mg/kg/day daily over 8 hours, from 7.0): 6.9 gram/dl
- total hemoglobin after treatment ([10]; continuous, 1000 mg/kg/day, 24 hours per day for 5 days, declined from 6.8): 4.5
- total hemoglobin after treatment ([10]; pulse, 2 oral doses per week, 500 mg/kg on days 1 and 4, in one week, from 6.9): 7.6 gram/dl
- DNA fragmentation in fragmentation assays ([7]; pulsed administration): reduce DNA fragmentation
- Increase in γ-Globin Expressing Cells (fetal globin [2]; 0.2 mM): 54.6%
- Bfu-e growth (Bfu-e): further increase Bfu-e growth
- proliferation of colonies (human fetal liver cells): increased proliferation of colonies
- increase in fetal globin over controls (fetal globin [11]): 34%

SMILES: CCC(=O)O [propionate]
- hemoglobin synthesis (Friend leukemia cells): induced hemoglobin synthesis
- ability to increase fetal globin expression [8]: most effective

SMILES: CC(Cc1ccccc1)C(=O)O (stereo not drawn) [α-methylhydrocinnamic acid]
- system A transport of amino acids [1]: do not significantly alter system A transport of amino acids
- amino acid (MeAIB) uptake / transport [1]: did not inhibit amino acid transport
- Increase in γ-Globin Expressing Cells (fetal globin [2]; concentration not given): 64.4%
- Bfu-e growth (Bfu-e): further increase Bfu-e growth
- proliferation of colonies (human fetal liver cells): increased proliferation of colonies
- increase in fetal globin over controls (fetal globin [11]): 18%
